Counter-ions that a name gives are not always drawn.
How the values were obtained:
rat = assay: acute toxicity (LD50), rat; format: in vivo; settings: fumarate salt, expressed as free base
Protocol: (§1) The acute toxicities of the ±-racemate, the (+)-isomer and the (-)-isomer were conducted with the fumarate salts and probit analysis (Finney, D. J., Statistical Methods in Biological Assay, Hafner Pub. Co., N.Y., 2nd. Ed., 1964) was employed for the statistical treatment of the mortality data.

[1] = test system: Chlorpromazine-Induced Catalepsy; assay: Effects on Chlorpromazine-Induced Catalepsy; format: in vivo, rat; settings: then (+)-isomer 25 mg/kg IP after one hour
Protocol: (§2) (+)-4-Amino-N-(1-cyclohexyl-3-pyrrolidinyl)-N-methylbenzamide is useful in reducing the cataleptic side effects of known therapeutically effective drugs such as chlorpromazine [2-chloro-10-(3-dimethylaminopropyl)phenothiazine] and metoclopramide (N-diethylaminoethyl 2-methoxy-4-amino-5-chlorophenylcarboxamide). The effectiveness is shown in Tables IV and V. In each test the rat was administered a 100% effective cataleptic dose of the test drug followed one hour later by an effective dose of (+)-4-amino-N-(1-cyclohexyl-3-pyrrolidinyl)-N-methylbenzamide.

[2] = cataleptic effects (Tedeschi et al.); format: in vivo, rat; settings: in vivo, rat, fumarate salt, expressed as free base
Description: The procedure used for determing cataleptic effects of the fumarate salts was based on that of Tedeschi et al., Arch. Int. Pharmacodyn.

[3] = test system: Metoclopramide-Induced Catalepsy; assay: Effects on Metoclopramide-Induced Catalepsy; format: in vivo, rat; settings: Metoclopramide 40 mg/kg IP
Protocol: as §2

mouse = assay: acute toxicity (LD50), mouse; format: in vivo; settings: fumarate salt, expressed as free base
Protocol: as §1

CN(C(=O)c1ccc(N)cc1)C1CCN(C2CCCCC2)C1 (single isomer, unassigned; (+)) [(+)-isomer, (+)-4-Amino-N-(1-cyclohexyl-3-pyrrolidinyl)-N-methyl benzamide Fumarate]
LD50 (95% Confidence Limits) (rat; I.P.): 147 (134-222) mg/kg
LD50 (95% Confidence Limits) (rat; P.O.): 499 (322-593) mg/kg
Percent of Rats Cataleptic ([1]; Chlorpromazine 4 mg/kg IP, 0.5 h after initial treatment): 100%
Percent of Rats Cataleptic ([1]; Chlorpromazine 4 mg/kg IP, 1.0 h after initial treatment): 100%
Percent of Rats Cataleptic ([1]; Chlorpromazine 4 mg/kg IP, 1.5 h after initial treatment): 50%
Percent of Rats Cataleptic ([1]; Chlorpromazine 4 mg/kg IP, 2.0 h after initial treatment): 33%
Percent of Rats Cataleptic ([1]; Chlorpromazine 4 mg/kg IP, 3.0 h after initial treatment): 33%
Percent of Rats Cataleptic ([1]; Chlorpromazine 4 mg/kg IP, 4.0 h after initial treatment): 50%
Percent of Rats Cataleptic ([1]; Chlorpromazine 4 mg/kg IP, 5.0 h after initial treatment): 100%
Percent of Rats Cataleptic ([1]; Chlorpromazine 4 mg/kg IP, 6.0 h after initial treatment): 67%
Percent of Rats Cataleptic ([1]; saline 10 ml/kg IP, 0.5 h after initial treatment): 0%
Percent of Rats Cataleptic ([1]; saline 10 ml/kg IP, 1.0 h after initial treatment): 0%
Percent of Rats Cataleptic ([1]; saline 10 ml/kg IP, 1.5 h after initial treatment): 0%
Percent of Rats Cataleptic ([1]; saline 10 ml/kg IP, 2.0 h after initial treatment): 0%
Percent of Rats Cataleptic ([1]; saline 10 ml/kg IP, 3.0 h after initial treatment): 0%
Percent of Rats Cataleptic ([1]; saline 10 ml/kg IP, 4.0 h after initial treatment): 17%
Percent of Rats Cataleptic ([1]; saline 10 ml/kg IP, 5.0 h after initial treatment): 17%
Percent of Rats Cataleptic ([1]; saline 10 ml/kg IP, 6.0 h after initial treatment): 0%
NOAEL ([2]; IP): 100 mg/kg
NOAEL ([2]; PO): 200 mg/kg
Percent of Rats Cataleptic ([3]; then (+)-isomer 12.5 mg/kg IP after one hour, 0.5 h after initial treatment): 100%
Percent of Rats Cataleptic ([3]; then (+)-isomer 12.5 mg/kg IP after one hour, 1.0 h after initial treatment): 100%
Percent of Rats Cataleptic ([3]; then (+)-isomer 12.5 mg/kg IP after one hour, 1.5 h after initial treatment): 100%
Percent of Rats Cataleptic ([3]; then (+)-isomer 12.5 mg/kg IP after one hour, 2.0 h after initial treatment): 88%
Percent of Rats Cataleptic ([3]; then (+)-isomer 12.5 mg/kg IP after one hour, 3.0 h after initial treatment): 88%
Percent of Rats Cataleptic ([3]; then (+)-isomer 12.5 mg/kg IP after one hour, 4.0 h after initial treatment): 100%
Percent of Rats Cataleptic ([3]; then (+)-isomer 12.5 mg/kg IP after one hour, 5.0 h after initial treatment): 100%
Percent of Rats Cataleptic ([3]; then (+)-isomer 12.5 mg/kg IP after one hour, 6.0 h after initial treatment): 100%
Percent of Rats Cataleptic ([3]; then (+)-isomer 12.5 mg/kg IP after one hour, 7.0 h after initial treatment): 100%
Percent of Rats Cataleptic ([3]; then (+)-isomer 25 mg/kg IP after one hour, 0.5 h after initial treatment): 100%
Percent of Rats Cataleptic ([3]; then (+)-isomer 25 mg/kg IP after one hour, 1.0 h after initial treatment): 100%
Percent of Rats Cataleptic ([3]; then (+)-isomer 25 mg/kg IP after one hour, 1.5 h after initial treatment): 100%
Percent of Rats Cataleptic ([3]; then (+)-isomer 25 mg/kg IP after one hour, 2.0 h after initial treatment): 75%
Percent of Rats Cataleptic ([3]; then (+)-isomer 25 mg/kg IP after one hour, 3.0 h after initial treatment): 38%
Percent of Rats Cataleptic ([3]; then (+)-isomer 25 mg/kg IP after one hour, 4.0 h after initial treatment): 75%
Percent of Rats Cataleptic ([3]; then (+)-isomer 25 mg/kg IP after one hour, 5.0 h after initial treatment): 88%
Percent of Rats Cataleptic ([3]; then (+)-isomer 25 mg/kg IP after one hour, 6.0 h after initial treatment): 88%
Percent of Rats Cataleptic ([3]; then (+)-isomer 40 mg/kg IP after one hour, 0.5 h after initial treatment): 88%
Percent of Rats Cataleptic ([3]; then (+)-isomer 40 mg/kg IP after one hour, 1.0 h after initial treatment): 88%
Percent of Rats Cataleptic ([3]; then (+)-isomer 40 mg/kg IP after one hour, 1.5 h after initial treatment): 25%
Percent of Rats Cataleptic ([3]; then (+)-isomer 40 mg/kg IP after one hour, 2.0 h after initial treatment): 13%
Percent of Rats Cataleptic ([3]; then (+)-isomer 40 mg/kg IP after one hour, 3.0 h after initial treatment): 38%
Percent of Rats Cataleptic ([3]; then (+)-isomer 40 mg/kg IP after one hour, 4.0 h after initial treatment): 38%
Percent of Rats Cataleptic ([3]; then (+)-isomer 40 mg/kg IP after one hour, 5.0 h after initial treatment): 88%
Percent of Rats Cataleptic ([3]; then (+)-isomer 40 mg/kg IP after one hour, 6.0 h after initial treatment): 88%
Percent of Rats Cataleptic ([3]; then (+)-isomer 40 mg/kg IP after one hour, 7.0 h after initial treatment): 88%
Percent of Rats Cataleptic ([3]; then (+)-isomer 50 mg/kg IP after one hour, 0.5 h after initial treatment): 100%
Percent of Rats Cataleptic ([3]; then (+)-isomer 50 mg/kg IP after one hour, 1.0 h after initial treatment): 100%
Percent of Rats Cataleptic ([3]; then (+)-isomer 50 mg/kg IP after one hour, 1.5 h after initial treatment): 13%
Percent of Rats Cataleptic ([3]; then (+)-isomer 50 mg/kg IP after one hour, 2.0 h after initial treatment): 13%
Percent of Rats Cataleptic ([3]; then (+)-isomer 50 mg/kg IP after one hour, 3.0 h after initial treatment): 25%
Percent of Rats Cataleptic ([3]; then (+)-isomer 50 mg/kg IP after one hour, 4.0 h after initial treatment): 25%
Percent of Rats Cataleptic ([3]; then (+)-isomer 50 mg/kg IP after one hour, 5.0 h after initial treatment): 75%
Percent of Rats Cataleptic ([3]; then (+)-isomer 50 mg/kg IP after one hour, 6.0 h after initial treatment): 88%
Percent of Rats Cataleptic ([3]; then (+)-isomer 50 mg/kg IP after one hour, 7.0 h after initial treatment): 75%
LD50 (95% Confidence Limits) (mouse; I.P.): 126 (115-139) mg/kg
LD50 (95% Confidence Limits) (mouse; P.O.): 267 (233-313) mg/kg

From patent publication US4282244A, “Optical isomers of 4-amino-N-(1-cyclohexyl-3-pyrrolidinyl)-N-methylbenzamide” (A. H. Robins Company, Inc., priority 1980, dated 1981)
